Reference: patent publication US20070160531A1 (priority 1995, published 2007)

Test system: Rat Lung
Settings: in vivo, iv

With ^3H-daunomycin the “% in lung (total drug in the lung as a percentage of the original dose)” value was 0.65% and the “% inj/g tissue” value was 0.63 % inj/g.
